According to publication PMC7175122 (Biomolecules, 2020):
Entries after “also recorded” stand apart in the source; their conditions may differ. Like-named read-outs stand apart in the source and are kept apart here. Square brackets hold non-standard residues; d marks the D form. Side chains are listed from the residue outwards. Peptide text beside a SMILES is read from it. hArg = N=C(N)NCCCC[C@H](N)C(=O)O; ΔPro = O=C(O)[C@@H]1C=CCN1; Dab = NCC[C@H](N)C(=O)O; Dhp = not defined here

Legend:
VEGF-A165/NRP-1 complex [1] = target: T1, VEGF-A165/NRP-1 complex (Homo sapiens, UniProt O14786); experiment: Competitive NRP-1-binding assay (bt-VEGF-A165/NRP-1 complex inhibition, chemiluminescent detection); settings: for IC50: inhibition of VEGF-A165/NRP-1 complex formation; for inhibition values (plateau): 1–50 μM concentrations, IC50 not calculable in this range
T1 construct: purchased R&D Systems (Minneapolis, MN, USA)
T1 sequence (O14786 22-641 limits assumed): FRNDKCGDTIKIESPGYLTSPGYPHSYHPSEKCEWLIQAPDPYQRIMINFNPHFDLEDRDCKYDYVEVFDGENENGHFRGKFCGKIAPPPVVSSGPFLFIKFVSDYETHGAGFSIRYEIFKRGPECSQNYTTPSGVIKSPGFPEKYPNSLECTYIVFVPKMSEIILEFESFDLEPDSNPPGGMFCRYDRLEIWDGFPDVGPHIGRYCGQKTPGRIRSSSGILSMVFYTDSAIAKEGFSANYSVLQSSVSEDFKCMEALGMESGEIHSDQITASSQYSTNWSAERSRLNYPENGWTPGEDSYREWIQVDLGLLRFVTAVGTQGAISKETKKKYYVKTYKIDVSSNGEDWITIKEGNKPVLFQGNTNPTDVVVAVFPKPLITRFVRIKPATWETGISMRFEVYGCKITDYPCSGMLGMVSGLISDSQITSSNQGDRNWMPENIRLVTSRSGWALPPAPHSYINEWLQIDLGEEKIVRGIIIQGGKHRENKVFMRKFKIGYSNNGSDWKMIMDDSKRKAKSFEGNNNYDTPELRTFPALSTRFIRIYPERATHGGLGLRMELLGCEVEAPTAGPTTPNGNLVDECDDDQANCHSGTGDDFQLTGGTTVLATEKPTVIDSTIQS
Method: The method used was similar to the one previously described. The first step was a coating of a 96-well plate using 100 μL (200 ng/well) of recombinant human NRP-1. After overnight incubation at 4 °C, nonspecific binding was blocked with 0.5% BSA in PBS. Next, 50 µL of peptide in PBS in selected concentrations and 50 µL of human (bt)-VEGF-A165 (400 ng/mL) in PBS containing 4 µg/mL of heparin were added and incubated for 2 h at r.t. After washing, wells were treated with streptavidin-horseradish peroxidase conjugate in PBS (1:8000) for 45 min. Final washing was followed by an addition of 100 µL chemiluminescent substrate and the immediate quantitative determination of the luminescence. Wells incubated with (bt)-VEGF-A165 only served as a positive control (P), while not-coated by NRP-1 wells were used for a negative control (NS). Percentages of inhibition were calculated by the following formula:100% − [[(S − NS)/(P − NS)]·100%],(1) where S is the signal intensity obtained from wells incubated with the peptide. Presented data are the mean ± SEM of two or three independent experiments, each performed in triplicate.
IC50 of the peptides were calculated using the nonlinear regression function with Prism (GraphPad Software, San Diego, CA, USA). The same software was used to calculate and present the plasma stability assay results. All results are represented as an average, with error bars indicating ± SEM.
Peptides were tested by the bt-VEGF-A165/NRP-1 complex inhibition assay with chemiluminescent detection, as previously described. […] The amino acid was inserted in the same places as the Cys-Asp fragment previously. Compounds 3 and 4 were tested by the bt-VEGF-A165/NRP-1 inhibition assay at 1–50 μM concentrations.
2. Dose-response curves of synthesized peptides
The concentration-dependent inhibitory dose-curve data were plotted as the percentage inhibition normalized to the controls, with the applied curve fits calculated using GraphPad Prism (Version 5.01, GraphPad software). Data are presented as log(inhibitor) versus a normalized response-variable slope. Error bars represent means +/- SEM for two or three independent experiments. […]

VEGF-A165/NRP-1 complex [2] = target: T1, VEGF-A165/NRP-1 complex; settings: cited from earlier work; for inhibition of the formation of the VEGF-A165/NRP-1 complex: concentration of 100 μM
[3] = Degradation assay in human plasma (enzymatic stability); assay type: in vitro ADME; settings: human blood plasma, 37 °C; for remaining at 24 h: after 24 h, read-out: initial concentration still present in plasma; for remaining at 96 h: after 96 h, read-out: concentration remaining in plasma
Method: This assay was performed according to the method described previously. First, human blood plasma was preactivated in an Eppendorf ThermoMixer® Comfort (Hamburg, Germany) for 20 min at 37 °C (350 rpm). Next, the peptide dissolved in water (6 mg/mL; ~5 μmol/mL) was mixed with human plasma (~1 μmol/mL final concentration) and incubated in the same conditions. One-hundred microliters of the mixture was collected in 1.5-mL microtubes at selected time intervals (0–96 h), followed by protein precipitation by adding 100 μL of 98% ethanol and by vortexing for 1 min (3000 min^−1). Samples were centrifuged for 10 min at 4 °C (11,000 g), and 100 μL of supernatant was collected and lyophilized. Reconstituted in 100 μL of water, samples were subjected to RP-HPLC analysis. LC-MS analyses with a Shimadzu LCMS-2020 mass spectrometer (Duisburg, Germany) were done for selected samples. A detailed description of the method can be found in the Supplementary Materials. All results are represented as an average, with error bars indicating ± SEM determined from the results of two independent experiments performed in duplicates.
Compounds were incubated in human plasma at 37 °C, and at selected time intervals, samples were analyzed using RP-HPLC and LC-MS, as described previously. […] After 24 h, almost 50% of each compound’s initial concentration was still present in the plasma. Following the next time intervals, we observed a significant degradation of peptide 3 (~20% after 96 h) but a much slower decrease in the concentration of peptide 4 (~40% after 96 h). This is probably due to the slower detachment of Cys residue from the side chain (peptide 4) compared to detachment from the main chain (peptide 3). […] However, unmodified peptides tend to have short half-lives counted rather in minutes, e.g., ghrelin [48] and endomorphins, and modifications lead to extending this time often to only a few hours.
Table S4. Confidence intervals (95%) determined for calculated IC50.
Compound IC50 (µM) 95% Confidence Intervals
3. Analytical data of serum degradation
Analysis of plasma degradation products was carried out by HPLC-ESI-Q-MS with a Prominence HPLC system (binary pump system LC-20AD and autosampler SIL-20AC HT coupled to a SPD-20A UV detector and LCMS-2020 quadrupole mass detector).
Chromatographic separation was achieved on a Phenomenex Jupiter Proteo C12 column (250 × 4.6 mm) at 35 °C. Mobile phases consisted of H2O:TFA (99.95:0.05 v/v, phase A) and ACN:TFA (99.95:0.05 v/v, phase B) at a flow rate of 1.2 mL/min. […]
Elution was performed with a gradient as follows: t = 25 min., 0%–25% B. The injection volume was 15 μl. UV spectra were recorded at 190 nm.
The electrospray ionization (ESI) was operated in positive mode. […]

PBS = settings: 22 °C, up to 4 h
human blood plasma = settings: 37 °C, up to 96 h
[4] = set-up: method as in PMID 30881620; settings: human plasma; cited from earlier work
[5] = mean ± SEM, read-out: logIC50 (converted)
[6] = reference peptide, read-out: RP IC50

H-CKPRR-OH [Compound 7, CKPRR]
IC50 (VEGF-A165/NRP-1 complex [1]; [5]): 0.187 µM

ERTCDKPRR [fragment of the VEGF-A165 domain encoded by exons 7 and 8]
inhibition of the formation of the VEGF-A165/NRP-1 complex (VEGF-A165/NRP-1 complex [2]): ~100%

DKPRR [CDKPRR lacking the N-terminal Cys]
percentage of inhibition of VEGF-A165/NRP-1 interaction (VEGF-A165/NRP-1 complex [2]; at 100 µM): ~ 20% | IC50 (VEGF-A165/NRP-1 complex [2]; [6]): > 100 µM

N=C(N)NCCCC[C@H](N)C(=O)NCCCC[C@H](NC(=O)[C@H](CC(=O)O)NC(=O)[C@@H](N)CS)C(=O)N[C@@H](CCN)C(=O)N1CC=C[C@H]1C(=O)N[C@@H](CCCNC(=N)N)C(=O)O [Compound 1, H-Cys-Asp-Lys(hArg)-Dab-Dhp-Arg-OH] (H-CDK(hArg)[Dab][ΔPro]R-OH)
IC50 (VEGF-A165/NRP-1 complex [1]; read-out: IC50): 2.5 µM

N=C(N)NCCCC[C@H](N)C(=O)NCCCC[C@H](NC(=O)[C@@H](N)CS)C(=O)N[C@@H](CCN)C(=O)N1CC=C[C@H]1C(=O)N[C@@H](CCCNC(=N)N)C(=O)O [Compound 3, H-Cys-Lys(hArg)-Dab-Dhp-Arg-OH] (H-CK(hArg)[Dab][ΔPro]R-OH)
remaining at 24 h [3]: ~50% | remaining at 96 h [3]: ~20% | inhibition values (plateau) (VEGF-A165/NRP-1 complex [1]): ~ 80% | IC50 (VEGF-A165/NRP-1 complex [1]; [5]): 0.0834 µM

N=C(N)NCCCC[C@H](NC(=O)[C@H](CC(=O)O)NC(=O)[C@@H](N)CS)C(=O)NCCCC[C@H](N)C(=O)N[C@@H](CCN)C(=O)N1CC=C[C@H]1C(=O)N[C@@H](CCCNC(=N)N)C(=O)O [Compound 2, H-Lys(Cys-Asp-hArg)-Dab-Dhp-Arg-OH] (H-K([hArg-Asp-Cys])[Dab][ΔPro]R-OH)
IC50 (VEGF-A165/NRP-1 complex [1]; read-out: IC50): 2 µM

H-CTKPR-OH [Compound 6, CTKPR]
IC50 (VEGF-A165/NRP-1 complex [1]; read-out: IC50): 9.3 µM | fold increase of ligand affinity compared to tuftsin (VEGF-A165/NRP-1 complex [1]; vs tuftsin): more than 11 fold

H-Cys-Lys(hArg)-Dab-Dhp-Arg-OH (H-CK(hArg)[Dab][ΔPro]R-OH; SMILES N=C(N)NCCCC[C@H](N)C(=O)NCCCC[C@H](NC(=O)[C@@H](N)CS)C(=O)N[C@@H](CCN)C(=O)N1CC=C[C@H]1C(=O)N[C@@H](CCCNC(=N)N)C(=O)O)
fragment found (PBS): dimer, minor, 4 h | cleaved bond (human blood plasma): Cys-Lys, first_seen; also recorded: hArg-Lys; also recorded: Lys-Dab

H-CLPPR-OH [Compound 5, CLPPR]
IC50 (VEGF-A165/NRP-1 complex [1]; read-out: IC50): 11.4 µM | fold decrease of IC50 compared to the A7R peptide (VEGF-A165/NRP-1 complex [1]; vs A7R): seven-fold

C[C@@H](O)[C@H](N)C(=O)N[C@@H](CCCCN)C(=O)N1CCC[C@H]1C(=O)N[C@@H](CCCNC(=N)N)C(=O)O [Tuftsin, TKPR, reference compound] (H-TKPR-OH; N-terminus and C-terminus assumed)
IC50 (VEGF-A165/NRP-1 complex [2]; [6]): ≥ 100 µM | inhibition at 100 µM (VEGF-A165/NRP-1 complex [1]; 100 µM concentration, read-out: percentage inhibitory effect): 46% | IC50 (VEGF-A165/NRP-1 complex [1]; read-out: IC50): 100 µM

H-Lys(Cys-hArg)-Dab-Dhp-Arg-OH (H-K([hArg-Cys])[Dab][ΔPro]R-OH)
fragment found (PBS): dimer, minor, 4 h | cleaved bond (human blood plasma): Cys-hArg, first_seen; also recorded: hArg-Lys; also recorded: Lys-Dab

N=C(N)NCCCC[C@H](NC(=O)[C@@H](N)CS)C(=O)NCCCC[C@H](N)C(=O)N[C@@H](CCN)C(=O)N1CC=C[C@H]1C(=O)N[C@@H](CCCNC(=N)N)C(=O)O [Compound 4, H-Lys(Cys-hArg)-Dab-Dhp-Arg-OH] (H-K([hArg-Cys])[Dab][ΔPro]R-OH)
remaining at 24 h [3]: ~50% | remaining at 96 h [3]: ~40% | inhibition values (plateau) (VEGF-A165/NRP-1 complex [1]): ~ 80% | IC50 (VEGF-A165/NRP-1 complex [1]; [5]): 0.064 µM

LPPR
share of A7R inhibition of NRP-1 activation by VEGF-A165 for which the sequence is responsible (VEGF-A165/NRP-1 complex [2]): 75%

CDKPRR
inhibition of the formation of the VEGF-A165/NRP-1 complex (VEGF-A165/NRP-1 complex [2]): ~100%

H-Lys(hArg)-Dab-Dhp-Arg-OH [PP]
t1/2 [4]: 51 h

H-Lys(hArg)-Dab-Dhp-Arg-OH (H-K(hArg)[Dab][Dhp]R-OH; reading uncertain; also: printed as H-Lys(hArg)-Dab-Dhp-Arg-OH) [PP, parent branched peptide, previously published NRP-1 ligand]
IC50 (VEGF-A165/NRP-1 complex [2]; parent peptide, data already published, read-out: IC50): 4.3 µM
